As usually defined, the IC50 is the point on the concentration scale where inhibition reaches its midpoint. As a reminder, the clearance is a measure of how efficiently the substance is removed, as volume per time. For orientation: Cmax means the maximum level reached in the sampled fluid or tissue. What is called MRT is a mean duration of stay, worked out from the concentration-time curve. As a reminder, the Tmax is the time at which the peak concentration occurs.

The record followed here is patent publication US20220048915A1 (SHANGHAI PHARMACEUTICALS HOLDING CO., LTD., priority 2018, published 2022).

One data set concerns TNF-α. In words: Lipopolysaccharide (LPS)-induced inflammation model in mice, TNF-α in serum by ELISA. It is filed as in vivo, C57BL/6J mice. The protocol:
Male SPF-grade C57BL/6J mice, 6-8 weeks old, provided by Shanghai Ling Chang Biotechnology Co., Ltd. Animals were housed in clean-grade plastic cages (light and dark cycle 12/12 hours, temperature 22±2° C., humidity 50±10%, pellet feed, free drinking water).
1. Mice were weighed and administered according to an administration volume of 10 mL/kg, and oral administration by gavage was given for the first time. Each mouse was administrated at an interval of 3 minutes.
2. One hour after the first administration, LPS 5 mpk was administered intraperitoneally at an administration volume of 10 mL/kg.
3. 4 hours after the first administration, a second oral administration by gavage was given according to the administration volume of 10 mL/kg.
4. 6 hours after LPS intraperitoneal injection, mice were sacrificed, serum and cerebral cortex and hippocampus were sampled. After weighing the wet weight and they were put into liquid nitrogen for quick-freezing and storage.
Background: In an ELISA, binding on a coated surface is turned into a signal by an enzyme label.

Data set [1] in a line: Drug concentration in mice brain. It is filed as in vivo, ICR mice. To be noted: FIG. 1. The protocol: Blood samples were collected from the fundus vein of mice before and at 5, 15, 30, 60, 90, 120, 240, 480 and 1440 minutes of administration, respectively.
2-3 time points were taken for each mouse. The mice were sacrificed at 5, 15, 30, 60 and 1440 minutes after the administration (3 mice per time point), and the brains were taken, rinsed with saline, dried on filter paper and weighed.
Brain tissues were weighed, homogenized in saline (1:4, w/v). 50 μL of homogenized samples were taken, added with 300 μL of acetonitrile containing internal standard (propranolol, 25 ng/mL) to precipitate protein. After vortexing for 10 minutes and centrifuging at 6000 g for 10 minutes, 80 μL of supernatant was taken and placed in a 96-well plate for determination of drug concentration in tissue by UPLC/MS-MS, as shown in Table 2.

Another data set concerns the target p38α (Homo sapiens, UniProt Q16539). Nature of the data set: In vitro inhibition of p38 kinase (LANCE Ultra TR-FRET). It is filed as biochemical. On the technique in general: Time-resolved FRET reads energy transfer from a long-lived donor to a nearby acceptor.
A short description of data set [2]: Pharmacokinetic properties in mice. The class given is in vivo, ICR mice.
In the next data set the test system is BV-2 cells. Nature of the data set: Inhibition of inflammation in LPS-stimulated BV-2 cells (ELISA of inflammatory factors). To be noted: Mus musculus, 100 ng/mL LPS 4 hours. The class given is cell-based. The essentials: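 BV-2 cells (passage 8) pre-treated 1 h with compound (4-fold dilutions from 10,000 nM, 0.1% DMSO), then stimulated with 100 ng/mL LPS plus compound for 4 h at 37 °C. Supernatant IL-10, TNFα etc. measured by ELISA (OD450); % inhibition vs high/low controls, IC50 by curve fit.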

A further data set deals with p38β (Homo sapiens, UniProt Q15759). In words: In vitro inhibition of p38 kinase (LANCE Ultra TR-FRET). It is filed as biochemical.
[3] abbreviates: male, ICR, mouse, plasma, po 10 mg/kg.

Several values for one entry are separate records, joined by “and”; a condition that tells them apart may be missing. Equal entries are not always repeated.

p38α, sequence (Q16539 whole entry): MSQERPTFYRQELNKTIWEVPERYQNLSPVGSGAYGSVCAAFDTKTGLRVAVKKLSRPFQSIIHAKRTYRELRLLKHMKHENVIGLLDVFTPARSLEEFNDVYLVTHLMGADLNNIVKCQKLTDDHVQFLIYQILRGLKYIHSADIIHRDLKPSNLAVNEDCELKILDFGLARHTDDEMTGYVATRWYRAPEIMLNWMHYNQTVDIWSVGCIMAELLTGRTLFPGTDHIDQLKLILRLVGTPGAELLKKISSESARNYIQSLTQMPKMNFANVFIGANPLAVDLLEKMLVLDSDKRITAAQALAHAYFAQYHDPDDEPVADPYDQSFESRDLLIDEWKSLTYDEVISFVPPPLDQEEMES
p38β, sequence (Q15759 whole entry): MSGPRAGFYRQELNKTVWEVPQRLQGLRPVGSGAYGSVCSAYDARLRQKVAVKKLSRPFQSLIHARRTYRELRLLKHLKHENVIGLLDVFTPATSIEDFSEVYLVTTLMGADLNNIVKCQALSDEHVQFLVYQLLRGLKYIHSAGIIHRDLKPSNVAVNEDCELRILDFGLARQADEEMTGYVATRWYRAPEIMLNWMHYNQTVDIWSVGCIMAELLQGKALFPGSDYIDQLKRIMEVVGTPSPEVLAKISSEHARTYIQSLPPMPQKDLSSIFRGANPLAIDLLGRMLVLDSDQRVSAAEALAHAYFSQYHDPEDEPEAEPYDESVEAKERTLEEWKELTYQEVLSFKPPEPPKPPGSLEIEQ

Turning to `O=c1ncn2nc(Oc3ccc(F)cc3F)ccc2c1-c1c(Cl)cccc1Cl` [Compound I-4, 5-(2,6-dichlorophenyl)-2-(2,4-difluorophenoxy)-6H-pyrimido[1,6-b]pyridazin-6-one], in the data set with TNF-α (8 mpk), the “anti-inflammatory effect compared with the VX-745_8 mpk group” value is listed as “better anti-inflammatory effect”. Also, in the data set on TNF-α (8 mpk, P<0.01), the “levels of TNF-α compared with the mouse inflammation model group (G2)” value is recorded as “significantly reduced”. The TNF-α conc. with TNF-α (serum, individual animals, 8 mg/kg po bid interval 4 h, 6 hours after LPS 5 mpk ip) was 11.9 pg/mL and 127.8 pg/mL and -39.4 pg/mL and 107.7 pg/mL and 92.4 pg/mL and 17.4 pg/mL and 97.1 pg/mL and -37.7 pg/mL and 86.6 pg/mL and 58.6 pg/mL and 89.4 pg/mL and 116.9 pg/mL. Moreover, in data set [1] (1 h time point), the “concentration in mouse brain relative to the positive compound” value is “more than one time”. The “drug concentration in mice brain compared with the positive compound” value in data set [1] (different time points) is on record as “significantly higher”. Further, the “inhibitory activity against p38α kinase compared to the positive compound” value at p38α is given as “superior inhibitory activity”. Further, the IC50 at p38α (read-out: Kinase in vitro IC50(nM) p38α) came out at 9.87 nM; in the data set with BV-2 cells (read-out: BV-2 Rf IC50), 6.47 nM; on p38β (read-out: Kinase in vitro IC50(nM) p38β), 47.4 nM. Besides, the “clearance rate as fraction of that of the positive compound” value in data set [2] is 4/11. The “absorption compared with the positive compound VX-745 at the same dose” value in data set [2] (10 mg/kg) was “significantly higher”. In addition, in data set [2] (10 mg/kg, 5-1440 minutes), the “AUC relative to that of the positive compound” value amounted to 4.8 times. Also, the “Thalf (iv)” value in data set [2] (iv 3 mg/kg) is given as 2.5 h. Further, the clearance in data set [2] (male, ICR, mouse, plasma, iv 3 mg/kg) was 6.67 mL/min/kg. In addition, the Vd in data set [2] (male, ICR, mouse, plasma, iv 3 mg/kg, read-out: Vss (iv)) is 1.2 L/kg. The same compound yielded a Cmax in data set [2] (setting [3]) of 3000 ng/mL. Moreover, the MRT in data set [2] (setting [3]) came out at 4.4 h. For the same compound, the Tmax in data set [2] (setting [3]) worked out at 1.5 h. The compound further showed a BA in data set [2] (po 10 mg/kg vs iv 3 mg/kg) of 36.8%. Further, the “AUClast (po)” value in data set [2] (po 10 mg/kg, 5-1440 minutes) is on record as 8944 (h)*(ng/mL). Also, the Emax in the data set on BV-2 cells (read-out: BV-2 Max Inh. (%)) was 100%. For the same compound, on p38β, the “inhibitory activity against p38β kinase compared to the positive compound” value is listed as “superior inhibitory activity”.
